Source: patent US20230000875A1, “MULTIPLE UNIT PELLET SYSTEM TABLET COMPRISING RIBOFLAVIN” (DSM IP ASSETS B.V., priority 2019, published 2023)

Assay: Absorption of the solution of coated or uncoated riboflavin in water (coloration/release)
Type: physicochemical
Conditions: amount containing 10 mg riboflavin dissolved in 1000 ml water for 15 min; measured at 545 nm, spectrophotometer
Procedure: 80 g granulated Riboflavin was successively coated with 9% Na-alginate, 1% Ca-Chloride and 25% shellac using a WFP-mini fluid bed processor (DMR) in Wurster configuration. 89 g coated product with particle size between 250 and 1000 μm was obtained. Coating material was 35% of the particle mass, riboflavin content 50%. 20 mg of coated powder (containing 10 mg of Riboflavin) was dissolved in 1000 ml water for 15 min. Absorption of the solution was measured at 545 nm using a spectrophotometer (Genesys 20, thermo Scientific). Absorption of the solution was 0.065.
10 mg of riboflavin powder was dissolved in 1000 ml water for 15 min. Absorption of the solution was measured at 545 nm using a spectrophotometer (Genesys 20, thermo Scientific). Absorption of the solution was 0.386.
80 g granulated Riboflavin was coated with 60 g Eudragit FS30D and 10 g PIasACRYL T20 using a WFP-mini fluid bed processor (DMR) in Wurster configuration. 71 g coated product with particle size between 250 and 1000 μm was obtained. Coating material was ca. 20% of the particle mass, riboflavin content was 60%. 16.6 mg of coated powder (containing 10 mg of Riboflavin) was dissolved in 1000 ml water for 15 min. Absorption of the solution was measured at 545 nm using a spectrophotometer (Genesys 20, thermo Scientific). Absorption of the solution was 0.087.

- Absorption of the solution: 0.386
SMILES: Cc1cc2nc3c(=O)[nH]c(=O)nc-3n(C[C@H](O)[C@H](O)[C@H](O)CO)c2cc1C [Comparison Example 2, riboflavin]
